The test system of one data set is A 549. Put plainly: Proliferation test (formazan dye reduction), 72 h incubation. Conditions: A 549 cells. Type of data set: cell-based. The source says: (§1) Proliferationstest (Methotrexat-Reduktion)
(§2) Kontrollexperimente erhalten anstelle der Testsubstanz lediglich Wachstumsmedium. […] Flow bei einer Wellenlänge von 492 nm gemessen.
(§3) Für wiederholte Untersuchungen beträgt der Variationskoeffizient weniger als 15 %. Tabelle 1

The next data set relates to HT 29. The data set is described as above. Format: cell-based. Conditions: HT 29 cells.
Excerpt: as §1, §2, §3

The next data set relates to L1210. The data set is described as above. Type of data set: cell-based. Conditions: L1210 cells.
Excerpt: as §1, §2, §3

In a further data set the test system is L1210 Leukämie. Description: In vivo efficacy on L1210 leukaemia in mice (median survival time, T/C). Conditions: for optimale Dosis: dose giving the greatest antitumoral effect. Here is the method: Aszites Flüssigkeit wird 7 Tage nach der Tumor-Implantation unter sterilen Bedingungen aus DBA2 Mäusen entnommen (weiblich, 18 bis 20 g). Die Aszites Flüssigkeit wird dreimal mit PBS (phosphate buffered saline) gewaschen, gezählt und anschließend in PBS verdünnt bis zu einer Endkonzentration von 10⁶ Zellen pro 0,2 ml.
10⁶ Zellen in 0,2 ml PBS werden DBA2 Mäusen (weiblich, 18 bis 20 g) intraperitoneal appliziert. Dieser Transfer wird einmal wöchentlich wiederholt.
10⁵ Zellen der Aszites Flüssigkeit in 0,2 ml PBS werden BDF1 Mäusen (weiblich, 18 bis 20 g) intraperitoneal appliziert. 6 Tiere werden für jede Substanzkonzentration sowie für die Kontrolle eingesetzt.
a) Die Tiere werden an Tag 1 und Tag 5 nach der Tumorzellenimplantation gewogen. Gewichtsverlust von mehr als 20 % an Tag 5 wird als Indikator eines toxischen Substanzeffektes verwendet.
b) Am Ende des Experiments (Tod aller Tiere oder Erreichen von Tag 60) wird die mediane Überlebenszeit der Behandlungsgruppen bestimmt, sofern diese 65 % überlebende Tiere am Tag 5 enthielten. Die Ermittlung der medianen Überlebenszeit erfolgt entsprechend der Formel: [formula]
In dieser Formel bedeutet X den frühesten Tag, an dem die Zahl der überlebenden Tiere N/2 und Y den frühesten Tag, an dem die Zahl der überlebenden Tiere (N/2)-1 ist. In dem Fall, daß N eine ungerade Zahl ist, entspricht die mediane Überlebenszeit dem Zeitpunkt X.
Die mediane Überlebenszeit wird ausschließlich für im Verlauf des Experiments sterbende Tiere bestimmt. Geheilte Tiere (long time survivors, LTS) werden von der Bestimmung der medianen Überlebenszeit ausgeschlossen und getrennt aufgeführt.
Aus der medianen Überlebenszeit der behandelten Gruppen (MSTTumor) und Kontrollgruppen (MSTControl) wird der antitumorale Effekt-Tumor/control (T/C) entsprechend der Formel [formula] bestimmt. T/C Werte von mehr als 125 % werden als Indikator einer signifikanten antitumoralen Wirksamkeit der Testverbindung angesehen. Die Dosis, die jeweils den größten antitumoralen Effekt bewirkt (optimale Dosierung) ist in Tab. 2 aufgeführt. Noch lebende Tiere an Tag 60 werden als geheilt betrachtet (LTS). Ergebnisse: s. Tabelle 2

The conditions of data set [1]: free methotrexate; the 330 mg/kg dose is said to lie above it; cited from earlier work.
[2] abbreviates: L1210, 3xip/ip/Q3D, at optimal dose.

Data on 1 compound can be found in patent publication EP0383170A2, “Methotrexate linked to polymers, process for their preparation, and use” (HOECHST AKTIENGESELLSCHAFT, priority 1989, dated 1990).

A value given as a limit tells only on which side of the number the result lay.

In the case of `CN(Cc1cnc2nc(N)nc(N)c2n1)c1ccc(C(=O)N[C@@H](CCC(=O)O)C(=O)O)cc1` [Methotrexat, N-[4-[[(2,4-diamino-6-pteridinyl)-methyl]methylamino]benzoyl]-glutaminsäure], the IC₅₀ with A 549 was 0,01 µg/ml; in the data set on HT 29 it was 0,008 µg/ml; in the data set with L1210 it was 0,01 µg/ml. In addition, the “Wirkung (T/C %)” value is reported as 123% in the data set on L1210 Leukämie (L1210, 1xip/ip, at optimal dose) and 378% in the data set with L1210 Leukämie (setting [2]). Moreover, the “optimale Dosis” value is 100 mg polymerfixiertes Produkt/kg Körpergewicht in the data set on L1210 Leukämie (L1210, 1xip/ip) and 80 mg polymerfixiertes Produkt/kg Körpergewicht in the data set with L1210 Leukämie (L1210, 3xip/ip/Q3D). The compound further registered a toxisch with L1210 Leukämie (setting [2]) of 1. In the data set on L1210 Leukämie (L1210, 3xip/ip/Q3D, at optimal dose, animals alive at day 60 (LTS)), the Heilungen is 5/6. In the data set on L1210 Leukämie (mice with L1210 leukaemia, single i.p. application of 60 mg/kg body weight methotrexate equivalent), the “Lebensverlängerungen gegenüber unbehandelten Kontrollen” value is listed as “nicht wirksam”. Besides, the LD₅₀ in data set [1] is on record as less than 330 mg/kg.
